“And” between values parts separate entries of the source, which are not always exact repeats. Equal values may be shown once. Toxic doses and inconclusive results are not listed. The calls were made as follows: active = survival T/C of 150% or more; inactive = T/C below 125% in these data.
System: P388 leukemia ip, CD2F1 mice, survival T/C
Assay: NCI In Vivo Anticancer Drug Screen. Data for tumor model P388 Leukemia (intraperitoneal) in CD2F1 (CDF1) mice
Conditions: endpoint: median survival time, higher = longer survival
Method in brief: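 Mice carrying the transplanted tumor received test compound or vehicle. Survival was recorded in each group, and the value is the treated-group measurement divided by that of the vehicle-treated control group.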

[1] = dose: 25.0 mg/kg/injection, schedule: Q01DX009 (ip), vehicle: other
[2] = dose: 50.0 mg/kg/injection, schedule: Q01DX009 (ip), vehicle: other
[3] = dose: 100.0 mg/kg/injection, schedule: Q01DX009 (ip), vehicle: other
[4] = dose: 200.0 mg/kg/injection, schedule: Q01DX009 (ip), vehicle: other
[5] = dose: 400.0 mg/kg/injection, schedule: Q01DX009 (ip), vehicle: other
[6] = dose: 100.0 mg/kg/injection, schedule: Q01DX001 (ip), vehicle: saline with Tween-80
[7] = dose: 200.0 mg/kg/injection, schedule: Q01DX001 (ip), vehicle: saline with Tween-80
[8] = dose: 400.0 mg/kg/injection, schedule: Q01DX001 (ip), vehicle: saline with Tween-80
[9] = dose: 100.0 mg/kg/injection, schedule: Q01DX009 (ip), vehicle: Klucel (hydroxypropylcellulose) (HPC)
[10] = dose: 50.0 mg/kg/injection, schedule: Q01DX005 (ip), vehicle: Klucel (hydroxypropylcellulose) (HPC)
[11] = dose: 50.0 mg/kg/injection, schedule: Q01DX009 (ip), vehicle: saline with Tween-80
[12] = dose: 100.0 mg/kg/injection, schedule: Q01DX005 (ip), vehicle: Klucel (hydroxypropylcellulose) (HPC)
[13] = dose: 100.0 mg/kg/injection, schedule: Q01DX009 (ip), vehicle: saline with Tween-80
[14] = dose: 50.0 mg/kg/injection, schedule: Q01DX005 (ip), vehicle: saline with Tween-80
[15] = dose: 100.0 mg/kg/injection, schedule: Q01DX005 (ip), vehicle: saline with Tween-80
[16] = dose: 200.0 mg/kg/injection, schedule: Q01DX005 (ip), vehicle: saline with Tween-80

Measured: T/C

COc1cc(OC2OC(CO)C(O)C(O)C2O)c2c(O)c3c(=O)cc(C)oc3cc2c1 (stereo not drawn)
inactive: dose: 3.75 mg/kg/injection, schedule: Q01DX009 (ip), vehicle: Klucel (hydroxypropylcellulose) (HPC) 100 % of control | dose: 7.5 mg/kg/injection, schedule: Q01DX009 (ip), vehicle: Klucel (hydroxypropylcellulose) (HPC) 100 % of control | dose: 15.0 mg/kg/injection, schedule: Q01DX009 (ip), vehicle: Klucel (hydroxypropylcellulose) (HPC) 94 % of control | dose: 30.0 mg/kg/injection, schedule: Q01DX009 (ip), vehicle: Klucel (hydroxypropylcellulose) (HPC) 101 % of control

COc1cc2c(cc1OC)C(NC=O)CCC2 (stereo not drawn)
inactive: [1] 101 % of control | [2] 104 % of control | [3] 100 % of control | [4] 101 % of control | [5] 86 % of control

COc1cc(C(=O)O)c2c(c1C)OC(=O)c1c(C)cc(O)c(C=O)c1O2
inactive: dose: 6.25 mg/kg/injection, schedule: Q01DX009 (ip), vehicle: saline 119 % of control | dose: 12.5 mg/kg/injection, schedule: Q01DX009 (ip), vehicle: saline 119 % of control | dose: 25.0 mg/kg/injection, schedule: Q01DX009 (ip), vehicle: saline 100 % of control | dose: 26.0 mg/kg/injection, schedule: Q04DX003 (ip), vehicle: saline 116 % of control | dose: 40.0 mg/kg/injection, schedule: Q04DX003 (ip), vehicle: saline 112 % of control | dose: 60.0 mg/kg/injection, schedule: Q04DX003 (ip), vehicle: saline 119 % of control

O=C(Cc1ccccc1)NCCN1CCNCC1
inactive: [6] 105 % of control | [7] 108 % of control | [8] 96 % of control

CCC(=O)O[C@H]1CC[C@H]2[C@@H]3CC[C@H]4CCCC[C@]4(C)[C@H]3CC[C@]12C
inactive: [9] 90 % of control | dose: 200.0 mg/kg/injection, schedule: Q01DX009 (ip), vehicle: Klucel (hydroxypropylcellulose) (HPC) 95 % of control | dose: 400.0 mg/kg/injection, schedule: Q01DX009 (ip), vehicle: Klucel (hydroxypropylcellulose) (HPC) 105 % of control

O=C(O)CCC(=O)c1ccc2ccc3cccc4ccc1c2c34
inactive: [10] 102 % of control | [11] 101 % of control | [12] 103 % of control | [13] 115 % of control | dose: 200.0 mg/kg/injection, schedule: Q01DX005 (ip), vehicle: Klucel (hydroxypropylcellulose) (HPC) 99 % of control

CCc1nc(N)nc(N)c1-c1ccc(OC)c(N=[N+]=[N-])c1
inactive: dose: 60.0 mg/kg/injection, schedule: Q01DX005 (ip), vehicle: saline with Tween-80 97 % of control | dose: 120.0 mg/kg/injection, schedule: Q01DX005 (ip), vehicle: saline with Tween-80 100 % of control | dose: 240.0 mg/kg/injection, schedule: Q01DX005 (ip), vehicle: saline with Tween-80 117 % of control

CC1=C(C(=O)Nc2ccc(Cl)c(C(=O)OC(C)C)c2)SCCO1
inactive: [6] 96 % of control | [7] 92 % of control | [8] 87 % of control

CSCSCC(CO)NC(=O)C(Cl)Cl (stereo not drawn)
inactive: dose: 50.0 mg/kg/injection, schedule: Q01DX009 (ip), vehicle: water 102 % of control | dose: 200.0 mg/kg/injection, schedule: Q01DX009 (ip), vehicle: water 106 % of control | dose: 400.0 mg/kg/injection, schedule: Q01DX009 (ip), vehicle: water 113 % of control

O=P(=O)OP(=O)=O.[O]=[W](=[O])=[O]
inactive: dose: 25.0 mg/kg/injection, schedule: Q01DX009 (ip), vehicle: saline with Tween-80 100 % of control | [11] 100 % of control | [13] 95 % of control

CCOc1cccc(C=NCCS)c1O
inactive: [14] 92 % of control | [15] 90 % of control | [16] 86 % of control

O=c1c(Cl)c(Cl)cnn1-c1ccccc1
inactive: dose: 25.0 mg/kg/injection, schedule: Q01DX001 (ip), vehicle: saline with Tween-80 100 % of control | dose: 50.0 mg/kg/injection, schedule: Q01DX001 (ip), vehicle: saline with Tween-80 118 % of control | [6] 111 % of control | [7] 111 % of control

COc1ccccc1C(O)(c1ccccc1OC)C1(O)CCN(C)CC1
inactive: [10] 94 % of control | [12] 95 % of control

N#CC1C(=O)NC(=S)NC1c1ccc(Cl)cc1 (stereo not drawn)
inactive: dose: 50.0 mg/kg/injection, schedule: Q01DX009 (ip), vehicle: Klucel (hydroxypropylcellulose) (HPC) 94 % of control | [9] 101 % of control

[CH3][Sn]([CH3])([n]1cnc2ccccc21)[n]1cnc2ccccc21
inactive: dose: 3.12 mg/kg/injection, schedule: Q01DX005 (ip), vehicle: Klucel (hydroxypropylcellulose) (HPC) 111 % of control | dose: 6.25 mg/kg/injection, schedule: Q01DX005 (ip), vehicle: Klucel (hydroxypropylcellulose) (HPC) 115 % of control | dose: 12.5 mg/kg/injection, schedule: Q01DX005 (ip), vehicle: Klucel (hydroxypropylcellulose) (HPC) 118 % of control

CC(=O)OCc1c(-c2ccccc2)nc2n1CCS2
inactive: dose: 12.5 mg/kg/injection, schedule: Q01DX001 (ip), vehicle: Klucel (hydroxypropylcellulose) (HPC) 101 % of control and 95 % of control | dose: 25.0 mg/kg/injection, schedule: Q01DX001 (ip), vehicle: Klucel (hydroxypropylcellulose) (HPC) 114 % of control and 106 % of control | dose: 50.0 mg/kg/injection, schedule: Q01DX001 (ip), vehicle: Klucel (hydroxypropylcellulose) (HPC) 108 % of control and 107 % of control | dose: 100.0 mg/kg/injection, schedule: Q01DX001 (ip), vehicle: Klucel (hydroxypropylcellulose) (HPC) 86 % of control

CCOC(=O)CNC1=NCCO1
inactive: dose: 50.0 mg/kg/injection, schedule: Q01DX009 (ip), vehicle: saline 109 % of control | dose: 100.0 mg/kg/injection, schedule: Q01DX009 (ip), vehicle: saline 107 % of control | dose: 200.0 mg/kg/injection, schedule: Q01DX009 (ip), vehicle: saline 102 % of control | dose: 400.0 mg/kg/injection, schedule: Q01DX009 (ip), vehicle: saline 106 % of control

C[n+]1ccccc1/C=C/c1cccc([N+](=O)[O-])c1
inactive: dose: 5.0 mg/kg/injection, schedule: Q01DX009 (ip), vehicle: saline with Tween-80 100 % of control | dose: 10.0 mg/kg/injection, schedule: Q01DX009 (ip), vehicle: saline with Tween-80 109 % of control | dose: 20.0 mg/kg/injection, schedule: Q01DX009 (ip), vehicle: saline with Tween-80 100 % of control

OCC(COCCCCCCCCCCCCCC1C=CCC1)OCCCCCCCCCCCCCC1C=CCC1 (stereo not drawn)
inactive: dose: 100.0 mg/kg/injection, schedule: Q04DX003 (ip), vehicle: saline 96 % of control | dose: 200.0 mg/kg/injection, schedule: Q04DX003 (ip), vehicle: saline 89 % of control | dose: 400.0 mg/kg/injection, schedule: Q04DX003 (ip), vehicle: saline 93 % of control

CN(C)c1ccc(CN2CCCN(Cc3ccc(N(C)C)cc3)C2c2cc(Cl)ccc2O)cc1
inactive: [13] 95 % of control | dose: 200.0 mg/kg/injection, schedule: Q01DX009 (ip), vehicle: saline with Tween-80 90 % of control | dose: 400.0 mg/kg/injection, schedule: Q01DX009 (ip), vehicle: saline with Tween-80 90 % of control

CC1C2CCN(C)C1Cc1ccc(O)cc12 (stereo not drawn)
inactive: [14] 94 % of control | [15] 92 % of control | [16] 100 % of control

COc1cc(/C=N/NS(=O)(=O)c2ccc(C)cc2)cc([N+](=O)[O-])c1O
inactive: dose: 3.12 mg/kg/injection, schedule: Q01DX009 (ip), vehicle: distilled water + Tween-80 87 % of control | dose: 6.25 mg/kg/injection, schedule: Q01DX009 (ip), vehicle: distilled water + Tween-80 103 % of control | dose: 12.5 mg/kg/injection, schedule: Q01DX009 (ip), vehicle: distilled water + Tween-80 104 % of control | dose: 25.0 mg/kg/injection, schedule: Q01DX009 (ip), vehicle: distilled water + Tween-80 104 % of control | [1] 106 % of control | [2] 99 % of control | [3] 106 % of control | [4] 98 % of control | [5] 113 % of control

Nc1nc(N)c(N=O)c(Nc2ccc(Cl)c(Cl)c2)n1
inactive: dose: 100.0 mg/kg/injection, schedule: Q04DX003 (ip), vehicle: saline with Tween-80 100 % of control | dose: 200.0 mg/kg/injection, schedule: Q04DX003 (ip), vehicle: saline with Tween-80 90 % of control
